# Reference: patent US9250232B2, “Fluorescent probe” (THE UNIVERSITY OF TOKYO, priority 2012, dated 2016)
# Assays:
# [1] = Optical characteristics (absorption and fluorescence maxima, quantum yield) in 0.1 M phosphate buffer with 1% DMSO; type: physicochemical; conditions: for λmax,fl (nm) / Φfl (fluorescence quantum yield): 0.1 M phosphate buffer (pH 9); for Φfl (fluorescence quantum yield): standard 2-Me TM (0.42); for λmax,abs (nm) pH 9: pH 9, 0.1 M phosphate buffer
# Description: (§1) The measurement was performed in a 0.1 M phosphate buffer (pH 9) containing 1% dimethyl sulfoxide (DMSO). pKa was obtained from the absorbance meaured in a phosphate buffer (pH 9) by single-phase or two-phase curve fitting.
# [2] = Optical characteristics of diCl-2-COOH TM-monoβGal in 0.1 M phosphate buffer; type: physicochemical
# Description: The quantum yield was calculated by using the quantum yield (0.85) of fluorescein in 0.1M aqueous sodium hydroxide as the standard.
# [3] = Estimate of open-ring ratio by comparison with the absorption spectrum of TM-βGal; type: physicochemical; conditions: pH of physiological conditions; 10 μM in 0.1 M sodium phosphate buffer, 1.0% DMSO; versus TM-βGal
# Description: In order to estimate the open-ring ratio of diCl-2-COOH TM-monoβGal, comparison with the absorption spectrum of TM-βGal was performed. […] The measurement was performed by using 10 μM diCl-2-COOH TM-monoβGal in a 0.1 M sodium phosphate buffer of various pH values containing 1.0% DMSO. The excitation wavelength was 450 nm for TMβGal (compound described in International Patent Publication WO2012/099218), or 460 nm for diCl-2-COOH TM-monoβGal.
# HEK293 cells = test: Imaging of β-galactosidase in live HEK293 cells (lacZ+ / lacZ−), intracellular uptake; type: cell-based; conditions: 10 μM, 37° C., 30 minutes, DMEM with 0.1% DMSO, confocal microscope
# Description: For the HEK293 cells in which the lacZ gene encoding β-galactosidase was stably expressed (lacZ+), and the HEK293 cells into which the lacZ gene was not introduced (lacZ−) as a control, β-galactosidase in the cells was measured by using diCl-2-COOH TM-monoβGal or diCl-2-COOH TM-diβGal. The HEK293 cells (lacZ−) were incubated at 37° C. for 30 minutes in the Dulbecco's Modified Eagle's medium (DMEM) containing 0.1% DMSO together with 10 μM diCl-2-COOH TM-monoβGal or diCl-2-COOH TM-diβGal. […] The results are shown in FIG. 19 (diCl-2-COOH TM-monoβGal) and FIG. 20 (diCl-2COOHTM-diβGal).
# [4] = 2-Me TokyoMagenta in 0.1 M phosphate buffer (pH 9); compound of WO2012/099218; cited from earlier work
# [5] = pKa from absorbance in phosphate buffer by single-phase or two-phase curve fitting; conditions: single value given
# Description: as §1
# Description for physchem: as §1
smiles,measurement,setting,value
C[Si]1(C)C2=CC(=O)C=CC2=C(c2ccccc2C(=O)O)c2ccc(O)cc21 [2-COOH TM],pKa,physchem; pKa (first of two printed values),8.3
same,pKa,physchem; pKa (second of two printed values),7.6
same,"λmax,fl (nm)",[1],598 nm
same,Φfl (fluorescence quantum yield),[1],0.38
same,"λmax,abs (nm) pH 9",[1],582 nm
"C[Si]1(C)C2=C(Cl)C(=O)C=CC2=C(c2ccccc2C(=O)O)c2ccc(O)c(Cl)c21 [2-COOH DCTM, 4′,5′-Dichloro-2-COOH TokyoMagenta]","λmax,fl (nm)",[1],607 nm
same,Φfl (fluorescence quantum yield),[1],0.48
same,"λmax,abs (nm) pH 9",[1],591 nm
"C[Si]1(C)C2=C(Cl)C(=O)C=CC2=C(c2ccccc2C(=O)O)c2ccc(O[C@@H]3O[C@H](CO)[C@H](O)[C@H](O)[C@H]3O)c(Cl)c21 [diCl-2-COOH TM-monoβGal, 4′,5′-Dichloro-2-COOH TokyoMagenta mono-β-D-galactopyranoside]",Absorption λmax [nm],[2],460 nm
same,Fluorescence λmax [nm],[2],555 nm
same,Extinction Coefficient ε [M^−1cm^−1],[2]; pH 7.4,"1,200 (pH 7.4) M^−1cm^−1"
same,Quantum yield Φfl,"[2]; pH 7.4, standard fluorescein (0.85)",0.09 (pH 7.4)
same,"Part having the ring-closed structure, which does not show absorption",[3],more than 95%
same,Intracellular uptaking amount compared with diCl-2-COOH TM-diβGal,HEK293 cells,larger
"Cc1ccccc1C1=C2C=CC(=O)C=C2[Si](C)(C)c2cc(O)ccc21 [2-Me TM, 2-Me TokyoMagenta]","λmax,fl (nm)",[1],598 nm
same,"λmax,abs (nm) pH 3","[1]; pH 3, 0.1 M phosphate buffer",472 nm
same,"λmax,abs (nm) pH 9",[1],582 nm
same,Φfl (quantum yield used as the standard),[4],0.42
same,pKa,[5],6.8
